Measured values published in ChEMBL document CHEMBL1201862, “PubChem BioAssay data set” (2004).
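The compound was tested at five concentrations on cells cultured in 96-well plates, with a 48-hour exposure period. Here, GI50 denotes the concentration required for 50% inhibition of growth.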 Calls of active or inactive are those of the source. No stated cut-off is given here; in the data, active = GI50 up to about 1.1 µM and inactive = higher.

Experiments:
Assay in all cases: NCI-60 cell line screen, 48 h
U-251 = tested on: U-251
NCI-H226 = tested on: NCI-H226
UACC-257 = tested on: UACC-257
786-0 = tested on: 786-0
CCRF-CEM = tested on: CCRF-CEM
OVCAR-8 = tested on: OVCAR-8
SN12C = tested on: SN12C
Hs-578T = tested on: Hs-578T
TK-10 = tested on: TK-10
NCI-H23 = tested on: NCI-H23
HOP-62 = tested on: HOP-62
LOX IMVI = tested on: LOX IMVI
IGROV-1 = tested on: IGROV-1
EKVX = tested on: EKVX
A549 = tested on: A549
SNB-19 = tested on: SNB-19
SF-295 = tested on: SF-295
NCI-H522 = tested on: NCI-H522
A498 = tested on: A498
SR = tested on: SR

Measured: GI50

CN1CCC2(CC1)C(=O)N(NC(N)=O)C(=O)C2c1ccccc1 (centres undefined)
inactive: U-251 > 100 µM | NCI-H226 > 100 µM | UACC-257 > 100 µM | 786-0 > 100 µM | CCRF-CEM > 100 µM | OVCAR-8 > 100 µM | SN12C > 100 µM | Hs-578T > 100 µM | TK-10 > 100 µM | NCI-H23 > 100 µM | HOP-62 > 100 µM | LOX IMVI > 100 µM | IGROV-1 > 100 µM | EKVX > 100 µM | A549 > 100 µM | SNB-19 > 100 µM | SF-295 > 100 µM

Cc1[nH]n(-c2nc(O)c(C)c(=O)[nH]2)c(=O)c1CCO
inactive: U-251 > 100 µM | NCI-H226 > 100 µM | UACC-257 > 100 µM | 786-0 > 100 µM | CCRF-CEM > 100 µM | OVCAR-8 > 100 µM | SN12C > 100 µM | Hs-578T > 100 µM | TK-10 > 100 µM | NCI-H23 > 100 µM | NCI-H522 > 100 µM | IGROV-1 > 100 µM | EKVX > 100 µM | A498 > 100 µM | A549 > 100 µM | SNB-19 > 100 µM | SF-295 > 100 µM

CCOC(=O)C(=O)CC(=O)C1=C(c2ccccc2OC)CC(c2cccs2)=CC1=O
inactive: U-251 86.3 µM | NCI-H226 > 100 µM | UACC-257 > 100 µM | 786-0 > 100 µM | CCRF-CEM 37.1 µM | OVCAR-8 > 100 µM | SN12C > 100 µM | Hs-578T 2.75 µM | TK-10 > 100 µM | NCI-H23 > 100 µM | NCI-H522 20.9 µM | HOP-62 45.4 µM | LOX IMVI 83.9 µM | IGROV-1 15.3 µM | EKVX > 100 µM | A498 > 100 µM | A549 43.5 µM | SNB-19 > 100 µM | SF-295 18.7 µM

COc1ccc(N2C(=O)C3c4[nH]c5c(C)cccc5c4C4CCC(c5ccccc5)CC4C3C2=O)cc1 (centres undefined)
inactive: U-251 8.43 µM | NCI-H226 10.4 µM | UACC-257 16.8 µM | 786-0 3.9 µM | CCRF-CEM 1.28 µM | OVCAR-8 15.6 µM | SN12C 16.2 µM | Hs-578T 12.4 µM | TK-10 32.1 µM | NCI-H23 24.7 µM | NCI-H522 3.9 µM | HOP-62 14 µM | LOX IMVI 13.8 µM | IGROV-1 13.7 µM | EKVX 26.2 µM | A498 18.2 µM | A549 8.57 µM | SNB-19 21.9 µM | SF-295 17.5 µM

CNC(=O)c1ccccc1[S+]1c2cccc3cccc(c23)C(=O)N1C (centres undefined)
inactive: U-251 > 100 µM | NCI-H226 > 100 µM | UACC-257 > 100 µM | 786-0 > 100 µM | CCRF-CEM > 100 µM | OVCAR-8 > 100 µM | SN12C > 100 µM | Hs-578T > 100 µM | TK-10 > 100 µM | NCI-H23 > 100 µM | NCI-H522 > 100 µM | HOP-62 > 100 µM | LOX IMVI > 100 µM | IGROV-1 > 100 µM | EKVX > 100 µM | A498 > 100 µM | A549 > 100 µM | SNB-19 > 100 µM | SF-295 > 100 µM

NC(Cc1ccc(S(=O)(=O)O)cc1)C(=O)NC(Cc1ccc(S(=O)(=O)O)cc1)C(=O)NC(Cc1ccc(S(=O)(=O)O)cc1)C(=O)NC(Cc1ccc(S(=O)(=O)O)cc1)C(=O)O (centres undefined)
inactive: U-251 > 100 µM | NCI-H226 > 100 µM | UACC-257 > 100 µM | 786-0 > 100 µM | CCRF-CEM > 100 µM | OVCAR-8 > 100 µM | SN12C > 100 µM | Hs-578T > 100 µM | TK-10 > 100 µM | NCI-H23 > 100 µM | NCI-H522 > 100 µM | HOP-62 > 100 µM | LOX IMVI > 100 µM | IGROV-1 > 100 µM | EKVX > 100 µM | A498 > 100 µM | A549 > 100 µM | SF-295 > 100 µM

CC(=O)OC1CC2C(C)(C)C(=O)C=CC2(C)C2CCC3(C)C(c4ccoc4)OC(=O)C4OC43C12C (centres undefined)
inactive: U-251 6.14 µM | NCI-H226 22.2 µM | UACC-257 15.9 µM | 786-0 9.46 µM | OVCAR-8 8.04 µM | SN12C 4.21 µM | Hs-578T 3.88 µM | TK-10 95.1 µM | NCI-H23 7.53 µM | NCI-H522 5.18 µM | HOP-62 26 µM | IGROV-1 10.1 µM | EKVX 22.5 µM | A498 24.9 µM | A549 7.66 µM | SNB-19 19.5 µM | SF-295 14.6 µM

O=C1OC(=O)c2cc(S(=O)(=O)c3ccc4c(c3)C(=O)OC4=O)ccc21
inactive: U-251 > 100 µM | NCI-H226 > 100 µM | UACC-257 > 100 µM | 786-0 > 100 µM | CCRF-CEM > 100 µM | OVCAR-8 > 100 µM | SN12C > 100 µM | Hs-578T > 100 µM | TK-10 > 100 µM | NCI-H23 > 100 µM | NCI-H522 > 100 µM | HOP-62 > 100 µM | LOX IMVI > 100 µM | IGROV-1 > 100 µM | EKVX > 100 µM | A549 > 100 µM | SNB-19 > 100 µM | SF-295 > 100 µM

O=[N+]([O-])c1ccc(N2N=C(c3ccc4ccccc4c3O)CC2c2ccc(Cl)cc2Cl)c([N+](=O)[O-])c1 (centres undefined)
inactive: U-251 28 µM | NCI-H226 49.1 µM | UACC-257 48.9 µM | 786-0 28.2 µM | CCRF-CEM 12.9 µM | OVCAR-8 33.3 µM | SN12C 71 µM | Hs-578T 27.9 µM | TK-10 63 µM | NCI-H23 24.7 µM | NCI-H522 28 µM | HOP-62 38.1 µM | LOX IMVI 41.5 µM | IGROV-1 23.3 µM | EKVX 37.3 µM | A549 28.5 µM | SNB-19 29.3 µM | SF-295 24.3 µM

CCCCCCCCCCCCC(CC)CCCCC(=O)O (centres undefined)
inactive: U-251 > 47.6 µM | NCI-H226 > 100 µM | UACC-257 > 100 µM | 786-0 31.8 µM | CCRF-CEM 22.6 µM | OVCAR-8 > 100 µM | SN12C > 83 µM | TK-10 > 100 µM | NCI-H23 > 78.7 µM | NCI-H522 > 100 µM | HOP-62 > 100 µM | LOX IMVI > 65.5 µM | IGROV-1 > 100 µM | EKVX > 56.2 µM | A498 > 100 µM | A549 > 100 µM | SNB-19 > 100 µM | SR > 53.2 µM | SF-295 > 100 µM

C=C(C)[C@@H]1CCC2=C[C@@H](OC2=O)[C@@H](C(=C)C)C2=CC(C(=O)O)=C(C1)O2
inactive: NCI-H226 > 100 µM | UACC-257 > 100 µM | 786-0 > 100 µM | CCRF-CEM 38.7 µM | OVCAR-8 > 100 µM | SN12C > 100 µM | Hs-578T > 100 µM | TK-10 > 100 µM | NCI-H23 > 100 µM | NCI-H522 > 100 µM | HOP-62 > 100 µM | LOX IMVI 42 µM | IGROV-1 > 100 µM | EKVX > 100 µM | A498 > 100 µM | A549 > 100 µM | SNB-19 > 100 µM | SF-295 > 100 µM
